Results from patent US9629921B2, “Smart pro-drugs of serine protease inhibitors” (Trustees of Tufts College, priority 2002, dated 2017).
Where “and” joins values, the source holds several entries; their conditions need not be identical. Identical values can stand only once. Like-named read-outs stand apart in the source and are kept apart here.

How the values were obtained:
DPP IV = DPP IV (Homo sapiens, UniProt P27487); test: In vitro DPP IV enzyme inhibition assay; inhibitors incubated at pH 2 or pH 8, then added to enzyme assay solution at pH 8.0; type: biochemical
DPP IV, sequence (P27487 whole entry, species assumed): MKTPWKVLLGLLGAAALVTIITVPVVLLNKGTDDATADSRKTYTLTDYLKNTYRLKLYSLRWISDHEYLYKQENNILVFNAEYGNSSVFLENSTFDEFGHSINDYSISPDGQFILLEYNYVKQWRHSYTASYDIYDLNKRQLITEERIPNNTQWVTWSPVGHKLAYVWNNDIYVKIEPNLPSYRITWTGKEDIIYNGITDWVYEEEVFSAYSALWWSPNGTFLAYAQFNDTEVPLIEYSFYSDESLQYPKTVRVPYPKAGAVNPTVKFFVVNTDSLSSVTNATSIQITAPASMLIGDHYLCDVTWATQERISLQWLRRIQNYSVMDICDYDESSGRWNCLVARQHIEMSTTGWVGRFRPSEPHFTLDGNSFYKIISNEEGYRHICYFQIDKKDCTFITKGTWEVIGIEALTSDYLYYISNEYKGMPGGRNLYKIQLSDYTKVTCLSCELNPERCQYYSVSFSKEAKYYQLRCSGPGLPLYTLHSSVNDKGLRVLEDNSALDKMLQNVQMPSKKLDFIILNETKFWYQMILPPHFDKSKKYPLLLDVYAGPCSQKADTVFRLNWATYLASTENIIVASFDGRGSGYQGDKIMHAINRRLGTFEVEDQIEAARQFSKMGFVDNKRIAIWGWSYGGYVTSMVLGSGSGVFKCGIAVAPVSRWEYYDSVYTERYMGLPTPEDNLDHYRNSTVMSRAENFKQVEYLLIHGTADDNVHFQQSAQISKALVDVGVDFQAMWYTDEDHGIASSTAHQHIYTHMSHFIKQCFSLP
Procedure: Inhibitors were incubated overnight in pH 2 or pH 8 solutions and then added directly to an enzyme assay solution at pH 8.0.
It is important to note that the x-axis in FIG. 3 refers to the concentration of the SPI, not the concentration of the released Xaa-boroPro.

Serum DPP IV [1] = molecular target: T1, Serum DPP IV (Rattus norvegicus, UniProt P14740); test: Serum DPP IV activity in rats as a function of time after dosing; type: in vivo; conditions: rats, single oral dose of 0.025 mg/kg, average of four rats (FIG. 8)
T1 construct: Serum DPP IV activity in rats as a function of time; from tissue; host or cells: rat serum
T1 sequence (P14740 37-767 limits assumed): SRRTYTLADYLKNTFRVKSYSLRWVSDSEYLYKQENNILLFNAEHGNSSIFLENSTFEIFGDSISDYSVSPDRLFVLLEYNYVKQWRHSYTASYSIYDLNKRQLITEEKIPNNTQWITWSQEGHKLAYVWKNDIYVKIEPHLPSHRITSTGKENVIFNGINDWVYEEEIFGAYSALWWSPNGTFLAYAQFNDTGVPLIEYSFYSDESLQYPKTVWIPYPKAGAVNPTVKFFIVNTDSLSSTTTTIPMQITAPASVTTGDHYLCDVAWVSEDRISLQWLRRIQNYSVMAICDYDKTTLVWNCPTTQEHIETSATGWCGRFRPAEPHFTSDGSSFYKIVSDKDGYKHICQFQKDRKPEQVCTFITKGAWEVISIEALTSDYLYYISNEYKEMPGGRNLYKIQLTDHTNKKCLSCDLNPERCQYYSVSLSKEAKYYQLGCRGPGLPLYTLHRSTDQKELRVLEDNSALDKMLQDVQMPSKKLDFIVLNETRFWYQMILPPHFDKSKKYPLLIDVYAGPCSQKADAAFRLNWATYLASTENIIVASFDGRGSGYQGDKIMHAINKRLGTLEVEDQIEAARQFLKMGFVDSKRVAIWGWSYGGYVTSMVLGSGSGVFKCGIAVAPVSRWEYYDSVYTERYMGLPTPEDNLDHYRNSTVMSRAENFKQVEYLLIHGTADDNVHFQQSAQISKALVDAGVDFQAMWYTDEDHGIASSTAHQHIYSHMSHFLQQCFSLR
Procedure: FIG. 8 Serum DPP IV activity in rats as a function of time following a single oral dose of 0.025 mg/kg. Each bar represents the average of four rats.
Each bar represents the average of four rats.

serum DPP IV [2] = molecular target: serum DPP IV (Mus musculus, UniProt P28843); test: In vivo inhibition of serum DPP IV in db/db mice after oral dose; conditions: Diabetic-control = 100.00; for activity at 0.0025 mg/kg / activity at 0.01 mg/kg / activity at 0.025 mg/kg: mouse, iv; for activity at 0.0025 mg/kg: read-out: In vivo inhibition of serum DPP IV, 0.0025 mg/kg; for activity at 0.01 mg/kg: read-out: In vivo inhibition of serum DPP IV, 0.01 mg/kg; for activity at 0.025 mg/kg: read-out: In vivo inhibition of serum DPP IV, 0.025 mg/kg
serum DPP IV, sequence (P28843 37-760 limits assumed): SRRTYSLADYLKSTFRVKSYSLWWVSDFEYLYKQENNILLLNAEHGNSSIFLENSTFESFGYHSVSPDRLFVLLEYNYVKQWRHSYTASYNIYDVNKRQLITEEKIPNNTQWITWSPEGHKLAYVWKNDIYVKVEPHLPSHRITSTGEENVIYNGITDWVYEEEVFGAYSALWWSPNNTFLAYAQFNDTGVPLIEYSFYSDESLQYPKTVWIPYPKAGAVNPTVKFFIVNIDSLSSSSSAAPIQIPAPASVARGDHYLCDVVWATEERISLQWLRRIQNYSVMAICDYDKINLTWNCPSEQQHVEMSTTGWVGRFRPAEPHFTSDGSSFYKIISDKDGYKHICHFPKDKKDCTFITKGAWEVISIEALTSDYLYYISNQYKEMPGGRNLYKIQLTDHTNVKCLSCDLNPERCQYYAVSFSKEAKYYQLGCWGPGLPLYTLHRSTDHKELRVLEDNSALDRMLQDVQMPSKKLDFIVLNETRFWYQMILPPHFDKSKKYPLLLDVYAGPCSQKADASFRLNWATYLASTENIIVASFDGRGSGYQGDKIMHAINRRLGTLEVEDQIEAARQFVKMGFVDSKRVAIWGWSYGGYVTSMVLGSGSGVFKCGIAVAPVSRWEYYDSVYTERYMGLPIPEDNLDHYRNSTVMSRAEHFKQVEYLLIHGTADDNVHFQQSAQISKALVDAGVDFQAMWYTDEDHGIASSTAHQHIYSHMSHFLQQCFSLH

male Sprague-Dawley rats = test: Example 10: clinical signs and mortality after single oral administration in male rats; conditions: for Clinical Observation: one line per animal, wrapped cell 'Redness of ears' continues 'and paws';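 on all read-outs here: test articles given by mouth, formulated in deionized Type I water as vehicle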
Zucker rats = test: Toxicity (mortality) after oral dose in rats; type: in vivo
Diabetic Mice = test: Toxicity (mortality) of Val-boroPro in diabetic mice; type: in vivo
[3] = pH 2, ten minutes, read-out: IC50 Values at Ten Minutes pH 2
[4] = pH 2, read-out: Tetrapeptide Prodrugs (IC50) pH 2
[5] = pH 8, read-out: Tetrapeptide Prodrugs (IC50) pH 8
[6] = pH 8, ten minutes, read-out: IC50 Values at Ten Minutes pH 8

CC(NC(=O)C(C)(C)N)C(=O)NC(C(=O)N1CCCC1B(O)O)C(C)C (stereo not shown) [AibAlaValboroPro]
IC50 (DPP IV; [3]): 2000 nM

CC(N)C(=O)N1CCCC1C(=O)NC(C(=O)N1CCCC1B(O)O)C(C)C (stereo not shown) [AlaProValboroPro]
IC50 (DPP IV; [4]): 20 nM
IC50 (DPP IV; [3]): 20 nM
IC50 (DPP IV; [5]): 21 nM
IC50 (DPP IV; [6]): 21 nM

CC(NC(=O)C1CCCN1C(=O)C(N)Cc1ccccc1)C(=O)N1CCCC1B(O)O (stereo not shown) [PheProAlaboroPro, Phenylalanine-Proline-Alanine-Proline Boronic Acid]
IC50 (DPP IV; [3]): 6 nM
IC50 (DPP IV; [6]): 8 nM

CC(NC(=O)C1CCCN1C(=O)C(N)C1CCCCC1)C(=O)N1CCCC1B(O)O (stereo not shown) [ChgProAlaboroPro, Cyclohexylglycine-Proline-Ala-boroProline]
IC50 (DPP IV; [4]): 19 nM
IC50 (DPP IV; [3]): 17 nM
IC50 (DPP IV; [5]): 15 nM
IC50 (DPP IV; [6]): 17 nM
Inhibition of serum DPP IV activity compared with Val-boroPro (Serum DPP IV [1]): much less orally active
activity at 0.0025 mg/kg (serum DPP IV [2]; 1 hr Post Rx-Glucose): 110%
activity at 0.0025 mg/kg (serum DPP IV [2]; 4 hrs Post Rx-Glucose): 99.5%
activity at 0.01 mg/kg (serum DPP IV [2]; 1 hr Post Rx-Glucose): 100%
activity at 0.01 mg/kg (serum DPP IV [2]; 4 hrs Post Rx-Glucose): 77.5%
activity at 0.025 mg/kg (serum DPP IV [2]; 1 hr Post Rx-Glucose): 111%
activity at 0.025 mg/kg (serum DPP IV [2]; 4 hrs Post Rx-Glucose): 58.9%
Clinical Observation (male Sprague-Dawley rats; 0.5 mg/kg ALA-PRO boronic dose equivalents): None
Clinical Observation (male Sprague-Dawley rats; 2.5 mg/kg ALA-PRO boronic dose equivalents): None
Approximate Time of Sacrifice or Time Animal was Found Dead (hr post-dose) (male Sprague-Dawley rats; 10.0 mg/kg ALA-PRO boronic dose equivalents): ~5 h (sacrificed)
Clinical Observation (male Sprague-Dawley rats; 10.0 mg/kg ALA-PRO boronic dose equivalents, listed as L-2-Chg-PRO-ALA-PRO boronic acid): Redness of ears and Decreased activity and labored breathing and None (2×)

CCC(NC(=O)C1CC(O)CN1C(=O)C(N)C1CCCCC1)C(=O)N1CCCC1B(O)O (stereo not shown) [ChgHypEtgboroPro]
IC50 (DPP IV; [3]): 17 nM
IC50 (DPP IV; [6]): 25 nM

CC[C@H](NC(=O)[C@@H]1CSCN1C(=O)[C@@H](N)C1CCCCC1)C(=O)N1CCC[C@H]1B(O)O [ChgThz4EtgboroPro]
IC50 (DPP IV; [3]): 13 nM
IC50 (DPP IV; [6]): 16 nM

NC(Cc1ccc(O)cc1)C(=O)N1CCCC1C(=O)NC(Cc1ccccc1)C(=O)N1CCCC1B(O)O (stereo not shown) [TyrProPheboroPro]
IC50 (DPP IV; IC50 Values at Ten Minutes pH 2, pH 2, ten minutes): 50 nM
IC50 (DPP IV; IC50 Values at Ten Minutes pH 8, pH 8, ten minutes): 60 nM

CC(NC(=O)C(N)C1CCCCC1)C(=O)NC(C(=O)N1CCCC1B(O)O)C(C)C (stereo not shown) [ChgAlaValboroPro]
IC50 (DPP IV; [4]): 190 nM
IC50 (DPP IV; [3]): 190 nM
IC50 (DPP IV; [5]): 360 nM
IC50 (DPP IV; [6]): 360 nM

NCC(=O)N1CCCC1C(=O)N1CCCC1C(=O)N1CCCC1B(O)O (stereo not shown) [GlyProProboroPro]
IC50 (DPP IV; [4]): 9000 nM
IC50 (DPP IV; [3]): 8600 nM
IC50 (DPP IV; [6]): 20000 nM

CC(C)[C@H](N)C(=O)N1CCC[C@H]1B(O)O [Val-boroPro]
MORTALITY (Zucker rats; 0.035 mg/kg Oral, Zucker Lean, 4 animals dosed, project 002969): 1
MORTALITY (Zucker rats; 0.035 mg/kg Oral, Zucker Obese, 4 animals dosed, project 002969): 4
MORTALITY (Zucker rats; 0.35 mg/kg Oral, Zucker Lean, 4 animals dosed, project 002969): 4
MORTALITY (Zucker rats; 0.35 mg/kg Oral, Zucker Obese, 4 animals dosed, project 002969): 4
MORTALITY (Zucker rats; 1.75 mg/kg Oral, Zucker Lean, 4 animals dosed, project 002969): 2
MORTALITY (Zucker rats; 1.75 mg/kg Oral, Zucker Obese, 4 animals dosed, project 002969): 2
MORTALITY (Zucker rats; 5 mg/kg Oral, Zucker Lean, 3 animals dosed, project 002898): 3
MORTALITY (Zucker rats; 5 mg/kg Oral, Zucker Obese, 4 animals dosed, project 002898): 4
Mortality (rats killed) (Zucker rats; Zucker rats, dose of 0.035 mg/kg): four out of four
Toxicity to rats (Zucker rats; rats): quite toxic to rats
MORTALITY (Diabetic Mice; 0.035 mg/kg, Diabetic Mice (starved), 8 animals dosed, project 011050): 0
MORTALITY (Diabetic Mice; 0.035 mg/kg, Diabetic Mice, 7 animals dosed, project 010757): 0
MORTALITY (Diabetic Mice; 0.035 mg/kg, Diabetic Mice, 8 animals dosed, project 011050 group 3): 0
MORTALITY (Diabetic Mice; 0.35 mg/kg, Diabetic Mice, 7 animals dosed, project 010757): 0
Toxic effect in mice (Diabetic Mice; 3.5 mg/kg): no noticeable toxic effect
MORTALITY (Diabetic Mice; 3.5 mg/kg, Diabetic Mice, 7 animals dosed, project 010757): 0
Toxicity to mice (Diabetic Mice; mice): apparently not at all
In vivo inhibition of serum DPP IV (serum DPP IV [2]; 0.0025 mg/kg, 1 hr Post Rx-Glucose): 94.52
In vivo inhibition of serum DPP IV (serum DPP IV [2]; 0.0025 mg/kg, 4 hrs Post Rx-Glucose): 93.30
In vivo inhibition of serum DPP IV (serum DPP IV [2]; 0.01 mg/kg, 1 hr Post Rx-Glucose): 59.36
In vivo inhibition of serum DPP IV (serum DPP IV [2]; 0.01 mg/kg, 4 hrs Post Rx-Glucose): 58.85
In vivo inhibition of serum DPP IV (serum DPP IV [2]; 0.025 mg/kg, 1 hr Post Rx-Glucose): 47.49
In vivo inhibition of serum DPP IV (serum DPP IV [2]; 0.025 mg/kg, 4 hrs Post Rx-Glucose): 39.23

O=C(C1CCCN1C(=O)C1CCCN1C(=O)C1CCCN1)N1CCCC1B(O)O (stereo not shown) [ProProProboroPro]
IC50 (DPP IV; [4]): 10000 nM
IC50 (DPP IV; [3]): 10000 nM

CC(NC(=O)C(NC(=O)C1CCCN1C(=O)C(N)C1CCCCC1)C1CCCCC1)B(O)O (stereo not shown) [ChgProChgboroAla]
IC50 (DPP IV; [4]): 180 nM
IC50 (DPP IV; [3]): 180 nM
IC50 (DPP IV; [5]): 170 nM
IC50 (DPP IV; [6]): 170 nM

CC(NC(=O)C1CCCN1C(=O)C(N)C(C)(C)C)C(=O)N1CCCC1B(O)O (stereo not shown) [tBugProAlaboroPro]
IC50 (DPP IV; [3]): 14 nM
IC50 (DPP IV; [6]): 18 nM

CC(NC(=O)C1CCCN1C(=O)C(N)Cc1ccc(O)cc1)C(=O)N1CCCC1B(O)O (stereo not shown) [TyrProAlaboroPro, Tyrosine-Proline-Alanine-Proline Boronic Acid]
IC50 (DPP IV; [3]): 15 nM
IC50 (DPP IV; [6]): 17 nM

CCC(NC(=O)C1CCN1C(=O)C(N)C1CCCCC1)C(=O)N1CCCC1B(O)O (stereo not shown) [ChgAzeEtgboroPro]
IC50 (DPP IV; [3]): 15 nM
IC50 (DPP IV; [6]): 16 nM
